Data as given in article PMC9329436, “Optimization of the 4-anilinoquin(az)oline scaffold as epidermal growth factor receptor (EGFR) inhibitors for chordoma utilizing a toxicology profiling assay platform” (Scientific Reports, 2022).
Read-outs that look alike come from different tables or passages of the source.

Experiments:
[1] = tested on: U-CH1 chordoma cell line; details: previously reported, Figure 1; cited from earlier work
[2] = tested on: HL60 cells; test: AsedaSciences SYSTEMETRIC Cell Health Screen (flow cytometry toxicity profiling); details: HL60, 4 h, 5 nM–100 µM; for CC: Cell Cycle score / CM: Cell morphology score / CMI: Cell membrane integrity score / GSH: Glutathione score / MMP: Mitochondrial membrane depolarization score / NMI1: Nuclear membrane integrity 1 score / NMI2: Nuclear membrane integrity 2 score / ROS: Reactive superoxide species score: probability 0–1, n = 2; for CHI: Cell Health Index: probability (0–1) of high-risk class, n = 2
Summary of the method: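 Risk scores derive from a logistic-regression ML classifier comparing flow-cytometric stress phenotypes with those of 300 reference compounds of known high or low human risk. Phenotypes: light scatter plus fluorescent physiological dyes, twelve parameters, no gating. Compounds tested 5 nM–100 µM (3× steps, duplicate) on HL60 cells, 4 h, 37 °C.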

[3] = tested on: U-CH2 chordoma cell line; details: previously reported, Figure 1; cited from earlier work
[4] = target: EGFR (Homo sapiens, UniProt P00533); test: ProQinase in-cell EGFR assay (EGFR phosphorylation in A431 cells); format: cell-based; design: This cell line endogenously expresses a high level of EGFR; endogenous in cells; host or cells: A431
Description: In addition, we ran an EGFR in-cell target engagement assay, measuring in-cell EGFR phosphorylation, using the human epidermoid carcinoma cell line A431. This cell line endogenously expresses a high level of EGFR, and stimulation of these cells with human epidermal growth factor (EGF) results in receptor tyrosine autophosphorylation.

[5] = tested on: UM-Chor1 patient-derived chordoma cell line; test: Cell viability assay (alamarBlue, 72 h), UM-Chor1; format: cell-based, human; details: n = 4, 72 h
Summary of the method: (§1)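 Patient-derived chordoma lines and WS1 fibroblasts seeded in 384-well plates, dosed in quadruplicate 24 h after plating.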

[6] = tested on: U-CH12 patient-derived chordoma cell line; test: Cell viability assay (alamarBlue, 72 h), U-CH12; format: cell-based, human; details: n = 4, 72 h
Summary of the method: as §1

[7] = tested on: WS1 human fibroblast cell line; test: Cell viability assay, WS1 toxicity control; format: cell-based; details: n = 4, nonspecific toxicity control
Summary of the method: as §1

[8] = tested on: U-CH2 chordoma cell line; test: Cell viability assay (alamarBlue, 72 h), U-CH2; format: cell-based, human
Summary of the method: (§2)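 Compound added in quadruplicate 24 h after plating; cultures maintained in 4:1 IMDM:RPMI, 10% FBS, gel-coated flasks.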

[9] = tested on: U-CH7 patient-derived chordoma cell line; test: Cell viability assay (alamarBlue, 72 h), U-CH7; format: cell-based, human; details: n = 4, 72 h
Summary of the method: as §1

[10] = tested on: U-CH1 chordoma cell line; test: Cell viability assay (alamarBlue, 72 h), U-CH1; format: cell-based, human; details: n = 4, 72 h
Summary of the method: as §2

[11] = tested on: CH22 patient-derived chordoma cell line; test: Cell viability assay (alamarBlue, 72 h), CH22; format: cell-based, human; details: n = 4, 72 h
Summary of the method: as §1

[12] = ProQinase in-cell EGFR assay, A431 cells, n = 1

Sequence of EGFR (P00533 25-1210): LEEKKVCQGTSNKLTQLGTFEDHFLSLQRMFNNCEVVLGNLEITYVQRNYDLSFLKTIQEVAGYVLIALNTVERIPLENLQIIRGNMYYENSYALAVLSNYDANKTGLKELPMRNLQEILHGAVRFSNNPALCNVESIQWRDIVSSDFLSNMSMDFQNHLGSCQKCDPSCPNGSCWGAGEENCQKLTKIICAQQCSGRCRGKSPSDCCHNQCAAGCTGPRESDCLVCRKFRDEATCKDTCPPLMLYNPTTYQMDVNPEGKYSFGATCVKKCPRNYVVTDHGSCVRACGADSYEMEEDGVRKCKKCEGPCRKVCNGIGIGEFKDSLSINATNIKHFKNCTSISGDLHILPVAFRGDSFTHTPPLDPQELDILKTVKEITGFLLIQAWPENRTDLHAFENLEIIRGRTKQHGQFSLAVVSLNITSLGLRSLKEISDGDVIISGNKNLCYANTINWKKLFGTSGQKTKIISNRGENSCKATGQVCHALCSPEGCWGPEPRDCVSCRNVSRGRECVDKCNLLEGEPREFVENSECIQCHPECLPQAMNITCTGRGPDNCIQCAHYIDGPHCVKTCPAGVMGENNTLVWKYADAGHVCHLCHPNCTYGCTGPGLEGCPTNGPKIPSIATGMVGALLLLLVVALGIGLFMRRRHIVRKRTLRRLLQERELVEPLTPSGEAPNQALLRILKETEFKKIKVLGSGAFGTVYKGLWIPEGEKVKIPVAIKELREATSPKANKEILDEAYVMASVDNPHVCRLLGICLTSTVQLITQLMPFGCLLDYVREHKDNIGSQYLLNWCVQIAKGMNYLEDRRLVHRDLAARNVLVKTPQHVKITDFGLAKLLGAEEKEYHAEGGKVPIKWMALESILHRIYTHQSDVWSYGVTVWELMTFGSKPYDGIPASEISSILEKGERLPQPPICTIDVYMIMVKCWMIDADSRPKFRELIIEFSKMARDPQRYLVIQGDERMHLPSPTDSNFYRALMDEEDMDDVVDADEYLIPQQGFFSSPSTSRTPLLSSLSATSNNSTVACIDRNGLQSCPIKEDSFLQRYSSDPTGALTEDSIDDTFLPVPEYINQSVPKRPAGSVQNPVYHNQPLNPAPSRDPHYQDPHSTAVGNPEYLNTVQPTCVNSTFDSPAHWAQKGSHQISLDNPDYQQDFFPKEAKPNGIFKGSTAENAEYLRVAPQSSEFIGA

SMILES | IC50 [1] [nM] | CC: Cell Cycle score [2] | CM: Cell morphology score [2] | CMI: Cell membrane integrity score [2] | GSH: Glutathione score [2] | MMP: Mitochondrial membrane depolarization score [2] | NMI1: Nuclear membrane integrity 1 score [2] | NMI2: Nuclear membrane integrity 2 score [2] | ROS: Reactive superoxide species score [2] | CHI: Cell Health Index [2] | IC50 [3] [µM] | IC50 [4, 12] [nM] | IC50 [10] [nM] | other results
CN(C)C/C=C/C(=O)Nc1cc2c(Nc3ccc(F)c(Cl)c3)ncnc2cc1O[C@H]1CCOC1 [Afatinib, reference compound] | 100 | 0.93 | 1.00 | 1.00 | 1.00 | 1.00 | 1.00 | 0.99 | 1.00 | 0.92 | 6.4 | – | – | –
C#Cc1cccc(Nc2ncnc3cc(OC)c(OC)cc23)c1 [Compound 1, N-(3-ethynylphenyl)-6,7-dimethoxyquinazolin-4-amine] | 920 | 0.086 | 0.85 | 0.11 | 0.18 | 0.39 | 0.47 | 0.41 | 0.32 | 0.41 | > 50 | 19 | 630 | IC50 ([5]; Homo sapiens): 28 µM; IC50 ([6]; Homo sapiens): > 100000 nM; IC50 ([7]; Homo sapiens, Fibroblast): 15 µM; IC50 ([8]; Homo sapiens, UCH2, n = 4, 72 h): 66 µM; IC50 ([9]; Homo sapiens): 23 µM; IC50 ([10]; Homo sapiens, UCH1, 72 h): < 1000 nM; IC50 ([11]; Homo sapiens): > 100000 nM
C#Cc1cc(Nc2ncnc3cc(OC)c(OC)cc23)ccc1F [Compound 44] | – | 0.027 | 0.83 | 0.40 | 0.054 | 0.15 | 0.44 | 0.18 | 0.66 | 0.34 | – | 30 | > 100000 | IC50 ([4]; in-cell EGFR inhibition): < 100 nM; IC50 [5]: 7.2 µM; IC50 [6]: 870 nM; IC50 [7]: 0.33 µM; IC50 ([8]; n = 4, 72 h): 22 µM; IC50 [9]: 0.68 µM; IC50 [11]: 300 nM
